Results taken from US11473077B2, “Engineered tyrosine ammonia lyase” (Codexis, Inc., priority 2018, dated 2022).

What was measured:
[1] = molecular target: T1, Flavobacterium johnsoniae tyrosine ammonia lyase (TAL), SEQ ID NO: 6 (Flavobacterium johnsoniae, UniProt A5FKY3); assay: SFP characterization assay for kinetic parameters on tyrosine (Michaelis-Menten fit, absorbance at 290 nm); type: biochemical; settings: 0-2.48 mM tyrosine, 200 mM sodium phosphate, pH 7.0, A290
T1 sequence (A5FKY3 1-506): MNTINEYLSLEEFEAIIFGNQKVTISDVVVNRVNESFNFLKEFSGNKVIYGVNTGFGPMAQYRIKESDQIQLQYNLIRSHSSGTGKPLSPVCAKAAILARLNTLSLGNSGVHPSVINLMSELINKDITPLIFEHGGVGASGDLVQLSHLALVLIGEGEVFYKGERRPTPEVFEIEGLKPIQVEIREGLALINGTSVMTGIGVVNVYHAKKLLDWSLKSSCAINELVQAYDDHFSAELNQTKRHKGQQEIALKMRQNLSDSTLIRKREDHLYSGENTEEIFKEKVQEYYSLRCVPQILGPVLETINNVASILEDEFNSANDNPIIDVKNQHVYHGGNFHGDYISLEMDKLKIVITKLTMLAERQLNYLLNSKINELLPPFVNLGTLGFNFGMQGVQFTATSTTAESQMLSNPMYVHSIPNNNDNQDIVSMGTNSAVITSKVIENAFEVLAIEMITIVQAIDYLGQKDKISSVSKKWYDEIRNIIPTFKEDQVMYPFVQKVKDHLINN
From the text: (§1) Polynucleotide sequences encoding phenylalanine and tyrosine ammonia lyases from Stanieria cyanosphaera (SEQ ID NO: 2), Chroogloeocystis siderophila (SEQ ID NO: 4), Flavobacterium johnsoniae (SEQ ID NO: 6), and Rhodotorula glutinis (SEQ ID NO: 8) were synthesized as the genes of SEQ ID NOS: 1, 3, 5, and 7, respectively. These synthetic genes were cloned into a pCK110900 vector system (See e.g., U.S. Pat. No. 7,629,157 and US Pat. Appln. Publn. Nos. 2016/0244787, and 2006/0195947, all of which are incorporated by reference), and subsequently expressed in an E. coli strain derived from W3110. In some embodiments, expression vectors lacking antimicrobial resistance markers find use.
(§2) E. coli cultures transformed with plasmids containing TAL variants were plated onto LBagar plates with 1% glucose and in some instances, 30 μg/mL chloramphenicol, and grown overnight at 37° C. A single colony from each culture was transferred to 5 mL of Luria Broth (LB) with 1% glucose and 30 μg/mL chloramphenicol, where appropriate. The cultures were grown for 18 h at 30° C., 250 rpm, and subcultured approximately 1:50 into 250 ml of TB with 30 μg/mL of chloramphenicol. The cultures were grown for approximately 3-4 h at 30° C., 250 rpm, to an OD600 of 0.6-0.8, and induced with 1 mM of IPTG. The cultures were grown for 20 h at 30° C., 250 rpm. Cells were harvested by centrifugation (7000 rpm×10 min, 4° C.), and the supernatants were discarded. The pellets were resuspended in 30 mL of 20 mM sodium phosphate, pH 8.0, with 150 mM NaCl in some instances, and lysed using a single pass through a microfluidizer (Microfluidics), at 110 psi. The lysates were pelleted (10,000× rpm, 30 min, 4° C.), and the supernatants were heated for 1-2 hours at 60-65° C. in a water bath before being pelleted again (10,000× rpm, 1 h, 4° C.). The resulting supernatants were then frozen and lyophilized to generate powders containing the expressed enzymes.
(§3) SFP Characterization Assay for Activity on Tyrosine and Phenylalanine
(§4) To evaluate if the mutations in the TAL variants had altered kinetics, the Michaelis constant (Km) and maximum velocity (Vmax) were determined for each variant. To assay, 20 μl of diluted TAL variants at 1 g/L and 180 μL of 2-fold serially diluted tyrosine (0-2.48 mM tyrosine in 200 mM sodium phosphate, pH 7.0), were added to the wells of a 96-well UV-STAR® plate (Greiner Bio-One). The reactions were mixed briefly, and the activity was determined by tracking the absorbance at 290 nm over time (every 14-37s over 5 min) using a SPECTRAMAX® Plus 384 or a SPECTRAMAX® 190 (Molecular Devices) absorbance microplate reader. The Vmax and Km for each tested TAL variant was determined by fitting the data to a Michaelis-Menten equation using non-linear regression.

[2] = molecular target: T2, Stanieria cyanosphaera tyrosine ammonia lyase (TAL), wild type, SEQ ID NO: 2 (Stanieria cyanosphaera, UniProt K9XQ92); assay: as above; type: biochemical; settings: 0-2.48 mM tyrosine, 200 mM sodium phosphate, pH 7.0, A290
T2 sequence (K9XQ92 1-562): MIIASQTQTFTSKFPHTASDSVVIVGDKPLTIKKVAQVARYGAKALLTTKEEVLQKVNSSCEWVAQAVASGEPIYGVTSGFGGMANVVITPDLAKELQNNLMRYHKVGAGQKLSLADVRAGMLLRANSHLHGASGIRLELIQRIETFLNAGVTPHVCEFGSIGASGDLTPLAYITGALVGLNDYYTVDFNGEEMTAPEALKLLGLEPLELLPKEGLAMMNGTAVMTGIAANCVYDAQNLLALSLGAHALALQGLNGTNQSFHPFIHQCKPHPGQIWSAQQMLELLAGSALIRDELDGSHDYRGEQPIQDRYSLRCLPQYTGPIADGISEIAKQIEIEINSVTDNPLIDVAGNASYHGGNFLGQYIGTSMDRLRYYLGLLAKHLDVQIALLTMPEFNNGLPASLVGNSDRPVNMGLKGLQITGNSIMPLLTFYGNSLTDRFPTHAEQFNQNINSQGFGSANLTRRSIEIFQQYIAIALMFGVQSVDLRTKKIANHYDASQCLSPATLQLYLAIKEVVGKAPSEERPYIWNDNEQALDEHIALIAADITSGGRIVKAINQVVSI
From the text: as §1, §2, §3, §4

For `N[C@@H](Cc1ccc(O)cc1)C(=O)O` [Tyr, L-tyrosine], the Km ([1]; read-out: Tyr Km) was less than 50 µM, the “Tyr Vmax” value ([1]; diluted TAL at 1 g/L) was “+ (“+” = 0.5-1)” and the Km ([2]; read-out: Tyr Km) was 50 to 150 µM. For the same compound, the “Tyr Vmax” value ([2]; diluted TAL at 1 g/L) was “+++ (“+++” > 5)”.
